In patent US8198405B2, “Stabilized alpha helical peptides and uses thereof” (Dana-Farber Cancer Institute, Inc., priority 2003, dated 2012):
Where a SMILES comes first, the peptide text is derived from it. Bridges are numbered along the chain shown (N, C = ends). [ ]: non-standard residue; d: D form. S5 = C=CCCC[C@](C)(N)C(=O)O; Nle = CCCC[C@H](N)C(=O)O

Columns and labels:
BCL-2 = biological target: T1, BCL-2 (Homo sapiens, UniProt P10415); test: Fluorescence polarization direct binding assay; conditions: fluorescinated compounds 25 nM, GST-BCL2 25 nM-1000 nM (FIG. 11d)
T1 construct: containing the plasmid encoding C-terminal deleted GST-BCL-2; made in house; host or cells: Escherichia coli BL21 (DE3)

[1] = system: purified mouse liver mitochondria; test: Cytochrome c release assay (ELISA), wild-type mitochondria; assay type: biochemical; conditions: wild-type versus Bak-/- mitochondria
Experimental: In order to assess the biological activity of SAHB3BID compounds in vitro, cytochrome c release assays were performed using purified mouse liver mitochondria. Mitochondria (0.5 mg/mL) were incubated for 40 minutes with 1 μM and 100 nM of SAHB3BID compounds and then supernatants and mitochondrial fractions isolated and subjected to cytochrome c ELISA assay. Background cytochrome c release (10-15%) was subtracted from total release for each sample, and the percent actual cytochrome c release was determined (FIG. 12). […] In each case, except for the double cross-linked SAHB3BIDE (which may lack critical amino acids for biological activity or, in this case, be overly constrained by the dual cross-links), there is approximately a doubling of cytochrome c release in response to 1 μM SAHB3BID compounds compared to the unmodified peptide (FIG. 12a). […] BID mutants with defective BH3 domains can promote BAK-independent cytochrome c mobilization (Scorrano et al, Dev Cell, 2:55), and the highly hydrophobic BID helix 6 has been implicated in this activity (L. Scorrano, S. J. Korsmeyer, unpublished results).
Similar to the above experiment, mouse liver mitochondria from wild-type and Bak−/− mice were exposed to the compounds at various concentrations and assayed for cytochrome c release at 10 and 40 minute intervals. […] Thus, SAHB3BIDA and B display a 10-25 fold enhancement in cytochrome c release activity at the 40 minute time point.

Jurkat leukemia cells = test: Apoptosis by annexin V flow cytometry; assay type: cell-based; conditions: 10 μM, 20 hours
Experimental: Indeed, the pro-apoptotic effect of 10 uM SAHB3BIDA and B on “wild-type” Jurkats was abolished in the BCL-2 overexpressing cells. […] The observed pro-apoptotic effects are selectively abolished by gly to glu mutation of SAHB3BIDA and cellular overexpression of BCL-2, findings which underscore that SAHB3BID compounds function via the defined mitochondrial apoptosis pathway.

[2] = system: REH, MV4; 11, and SEMK2 cell lines; test: Apoptosis induction assays; assay type: cell-based
BAX = biological target: T2, BAX (Homo sapiens, UniProt Q07812); test: Fluorescence polarization direct binding assay; conditions: full-length BAX
T2 construct: Full-length BAX protein was prepared as previously described (Suzuki et al, Cell, 103:645); made in house
T2 sequence (Q07812 whole entry): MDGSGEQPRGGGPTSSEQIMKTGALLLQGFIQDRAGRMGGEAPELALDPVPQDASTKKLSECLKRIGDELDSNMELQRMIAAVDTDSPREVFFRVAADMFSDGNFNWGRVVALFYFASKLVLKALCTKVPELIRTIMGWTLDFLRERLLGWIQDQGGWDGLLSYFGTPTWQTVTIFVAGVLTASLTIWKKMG

T1 sequence (P10415 1-218 limits assumed): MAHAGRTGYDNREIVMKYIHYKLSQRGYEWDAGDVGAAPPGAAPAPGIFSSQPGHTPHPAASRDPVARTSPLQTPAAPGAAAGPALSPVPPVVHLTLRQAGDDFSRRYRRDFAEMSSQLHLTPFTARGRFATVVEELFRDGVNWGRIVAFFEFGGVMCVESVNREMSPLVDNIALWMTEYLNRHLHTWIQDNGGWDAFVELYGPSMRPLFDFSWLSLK

SMILES: CCCC[C@H](NC(=O)[C@]1(C)CCCC=CCCC[C@](C)(NC(=O)[C@H](C)NC(=O)[C@H](CC(C)C)NC(=O)[C@H](Cc2c[nH]cn2)NC(=O)[C@H](CCCNC(=N)N)NC(=O)[C@H](C)NC(=O)[C@@H](NC(=O)[C@H](CC(N)=O)NC(=O)[C@H](CCCNC(=N)N)NC(=O)[C@@H](NC(=O)[C@@H](NC(=O)[C@H](CC(=O)O)NC(=O)[C@H](CCC(=O)O)NC(C)=O)[C@@H](C)CC)[C@@H](C)CC)[C@@H](C)CC)C(=O)N[C@@H](C(C)C)C(=O)N[C@@H](CCC(=O)O)C(=O)N[C@@H](CC(=O)O)C(=O)N1)C(=O)N[C@@H](CC(=O)O)C(=O)N[C@@H](CCCNC(=N)N)C(=O)N[C@@H](CO)C(=O)N[C@H](C(=O)N[C@@H](Cc1c[nH]c2ccccc12)C(N)=O)[C@@H](C)CC [SAHB3BID(G→E)A] (Ac-EDIIRNIARHLA[S5]VED[S5][Nle]DRSIW-NH2; staple 13-17; N-terminus assumed)
- Kd (BCL-2): 0.483 µM
- Bak dependence of cytochrome c release, in words [1]: only Bak-independent cytochrome c release
- apoptosis induction, in words (Jurkat leukemia cells): no effect
- apoptosis induction, in words [2]: no effect
- BAX binding, in words (BAX): measurable binding
